The values that follow come from patent publication US10294228B2, “Breathing control modulating compounds, and methods of making and using same” (NEURAD LTD., priority 2015, dated 2019).

Structures can show the parent of a compound that is named as a salt.

The subject of the assay is anesthetized rats. The experiment in a line: Anesthetized rat spirometry screening assay (ventilatory activity, minute volume). It is filed as in vivo. As to conditions: increase in minute volume (VE); for change in vivo at 0.3 mg/kg: 0.3 mg/kg IV bolus, read-out: VE % Inc @ 0.3 mg/kg IV; for change in vivo at 3 mg/kg: 3.0 mg/kg IV bolus, read-out: VE % Inc @ 3.0 mg/kg IV. How it is done: Anesthetized rats provide a quick method of screening compounds for respiratory and cardiovascular activity.
Rats were initially anesthetized with 3% isoflurane (inhaled) and femoral artery and vein cannulas were surgically inserted. Once cannulated, the rats were transitioned to urethane anesthesia (1.5 g/kg; i.v.) and a tracheal cut-down was performed. After placing the tracheal cannula, it was connected to a pneumotachometer to record respiratory airflow from which respiratory rate (RR), tidal volume (VT), and their product minute volume (MV, also termed VE) were derived. After the surgical preparation was complete, animals were allowed to stabilize for 30 minutes while respiratory rate, tidal volume, minute volume, blood pressure and heart rate were recorded continuously. Arterial blood gases (ABG) were obtained from arterial blood collected from the femoral artery. ABG measurements were taken before and 6 minutes after vehicle and each dose of compound administered. Compounds being screened were administered via bolus injections through the venous cannula followed by a saline flush (total time of administration is approximately 30 seconds), and the animal was monitored for at least 6 minutes for changes in cardiovascular efforts. Compounds were prepared in formulations identified to ensure optimal solubility. As such, vehicle controls were matched for the formulation of each compound tested. Dosing of the compounds being screened was conducted at 0.1 and/or 0.3 mg/kg and/or 3 mg/kg The next dose was not administered until all cardiovascular and respiratory measures had returned to baseline levels. The positive control compounds used were N-[4,6-di-(n-propylamino)-[1,3,5]triazin-2-yl]-N,O-dimethyl-hydroxylamine or N-[2,6-di-(n-propylamino)-[1,3]pyrimidin-4-yl]-N,O-dimethyl-hydroxylamine (both administered at the end of each screening experiment (0.3 mg/kg dose) to validate the experiment and also to serve as a measure with which the compound being screened could be compared.
Data were analyzed by collecting cardiovascular and respiratory data in 30 second averages (BINs). Data were plotted 2 minutes before challenge and then 6 minutes after challenge.

Regarding `CNc1nc(NCCO)c2nc(NC)nc(NC)c2n1` [Compound 52a, 2-(2,6,8-Tris-methylamino-pyrimido[5,4-d]pyrimidin-4-ylamino)-ethanol Hydrochloride], the change in vivo at 0.3 mg/kg was found to be 26%.

Take `C=CCNc1nc(NC)c2nc(NCCO)nc(NC)c2n1` [Compound 154, 2-(6-Allylamino-4,8-bis-methylamino-pyrimido[5,4-d]pyrimidin-2-ylamino)-ethanol]: the change in vivo at 0.3 mg/kg came out at 40% and the change in vivo at 3 mg/kg came to 103%.

Consider `CCCNc1nc(NC)nc2c(N[C@H]3c4ccccc4C[C@@H]3O)nc(NC)nc12` [Compound 78, (1S,2S)-1-(2,6-Bis-methylamino-8-propylamino-pyrimido[5,4-d]-pyrimidin-4-ylamino)-indan-2-ol], for which the change in vivo at 0.3 mg/kg stood at 173% and the change in vivo at 3 mg/kg turned out to be 180%. For `CCNc1nc(NCC)c2nc(NC[C@@H](C)O)nc(NCC)c2n1` [Compound 186, (R)-1-(4,6,8-Tris-ethylamino-pyrimido[5,4-d]pyrimidin-2-ylamino)-propan-2-ol], in that order: 37% and 90%. Regarding `CCCNc1nc(NC)nc2c(N[C@@H]3CCCC[C@@H]3O)nc(NC)nc12` [Compound 84, (1S,2R)-2-(2,6-Bis-methylamino-8-propylamino-pyrimido[5,4-d]pyrimidin-4-ylamino)-cyclohexanol], the change in vivo at 0.3 mg/kg came out at 169% and the change in vivo at 3 mg/kg turned out to be 184%.

`CCCNc1nc(NC)c2nc(NCC(O)C(F)(F)F)nc(NC)c2n1` (stereo not drawn) [Compound 111, 3-(4,8-Bis-methylamino-6-propylamino-pyrimido[5,4-d]pyrimidin-2-ylamino)-1,1,1-trifluoro-propan-2-ol]: the change in vivo at 0.3 mg/kg worked out at 18% and the change in vivo at 3 mg/kg was 105%. For the compound `CCCNc1nc(NC)nc2c(N3CCC(O)C3)nc(NC)nc12` (stereo not drawn) [Compound 71a, 1-(2,6-Bis-methylamino-8-propylamino-pyrimido[5,4-d]pyrimidin-4-yl)-pyrrolidin-3-ol Hydrochloride], the change in vivo at 0.3 mg/kg turned out to be 17% and the change in vivo at 3 mg/kg came out at 84%. Regarding `C=CCNc1nc(NC)c2nc(NC[C@H](C)O)nc(NC)c2n1` [Compound 143, (S)-1-(6-Allylamino-4,8-bis-methylamino-pyrimido[5,4-d]pyrimidin-2-ylamino)-propan-2-ol], the change in vivo at 0.3 mg/kg turned out to be 81% and the change in vivo at 3 mg/kg was determined as 150%. For `CCCNc1nc(NC)nc2c(N[C@H](C)CO)nc(NC)nc12` [Compound 20a, (R)-2-(2,6-Bis-methylamino-8-propylamino-pyrimido[5,4-d]-pyrimidin-4-ylamino)-propan-1-ol Hydrochloride], the change in vivo at 0.3 mg/kg amounted to 107%. As for `CCCNc1nc(NC)nc2c(N(C)CC(C)O)nc(NC)nc12` (stereo not drawn) [Compound 73a, 1-[(2,6-Bis-methylamino-8-propylamino-pyrimido[5,4-d]-pyrimidin-4-yl)-methyl-amino]-propan-2-ol Hydrochloride], the change in vivo at 0.3 mg/kg worked out at 16% and the change in vivo at 3 mg/kg was 79%. `CNc1nc(NCCOC)c2nc(NC)nc(NCCO)c2n1` [Compound 56a, 2-[8-(2-Methoxy-ethylamino)-2,6-bis-methylamino-pyrimido[5,4-d]pyrimidin-4-ylamino]-ethanol Hydrochloride]: the change in vivo at 0.3 mg/kg was 2%. In the case of `CC[C@H](C)Nc1nc(NC)c2nc(NC[C@H](C)O)nc(NC)c2n1` [Compound 105, (S)-1-[6-((S)-sec-Butylamino)-4,8-bis-methylamino-pyrimido[5,4-d]pyrimidin-2-ylamino]-propan-2-ol], the change in vivo at 0.3 mg/kg came to 14% and the change in vivo at 3 mg/kg amounted to 120%. Turning to `CCCNc1nc(NC)c2nc(N[C@@H]3c4ccccc4C[C@H]3O)nc(NC)c2n1` [Compound 129, (1R,2R)-1-(4,8-Bis-methylamino-6-propylamino-pyrimido[5,4-d]-pyrimidin-2-ylamino)-indan-2-ol], the change in vivo at 0.3 mg/kg worked out at 2% and the change in vivo at 3 mg/kg is 68%. Turning to `CCCNc1nc(NC)nc2c(N[C@@H]3CCCC[C@H]3O)nc(NC)nc12` [Compound 85, (1R,2R)-2-(2,6-Bis-methylamino-8-propylamino-pyrimido[5,4-d]pyrimidin-4-ylamino)-cyclohexanol], the change in vivo at 0.3 mg/kg is 69% and the change in vivo at 3 mg/kg worked out at 83%. Taken in the same sequence, the figures for `CNc1nc(N(C)C)nc2c(NC)nc(NCCO)nc12` [Compound 92, 2-(6-Dimethylamino-4,8-bis-methylamino-pyrimido[5,4-d]-pyrimidin-2-ylamino)-ethanol] were 49% and 148%.

In the case of `CCCNc1nc(NCC)c2nc(NC[C@H](C)O)nc(NCC)c2n1` [Compound 166, (S)-1-(4,8-Bis-ethylamino-6-propylamino-pyrimido[5,4-d]-pyrimidin-2-ylamino)-propan-2-ol], the change in vivo at 0.3 mg/kg was found to be 88% and the change in vivo at 3 mg/kg amounted to 91%. With `CCCNc1nc(NC)c2nc(N(C)CC(C)O)nc(NC)c2n1` (stereo not drawn) [Compound 97, 1-[(4,8-Bis-methylamino-6-propylamino-pyrimido[5,4-d]pyrimidin-2-yl)-methyl-amino]-propan-2-ol], the change in vivo at 0.3 mg/kg was found to be 49% and the change in vivo at 3 mg/kg was found to be 140%. As for `CCNc1nc(NC[C@@H](C)O)nc2c(NCC)nc(N)nc12` [Compound 171, (R)-1-(6-Amino-4,8-bis-ethylamino-pyrimido[5,4-d]-pyrimidin-2-ylamino)-propan-2-ol], the change in vivo at 0.3 mg/kg stood at 17% and the change in vivo at 3 mg/kg came out at 175%. For `CC[C@@H](C)Nc1nc(NC)c2nc(NC[C@H](C)O)nc(NC)c2n1` [Compound 101, (S)-1-[6-((R)-sec-Butylamino)-4,8-bis-methylamino-pyrimido[5,4-d]pyrimidin-2-ylamino]-propan-2-ol], in that order: 20% and 129%. Regarding `CCCNc1nc(NC)c2nc(NCC(C)(C)O)nc(NC)c2n1` [Compound 94, 1-(4,8-Bis-methylamino-6-propylamino-pyrimido[5,4-d]pyrimidin-2-ylamino)-2-methyl-propan-2-ol], the change in vivo at 0.3 mg/kg stood at 18% and the change in vivo at 3 mg/kg came out at 130%.

Take `CCCNc1nc(NC)nc2c(NCC(O)C(F)(F)F)nc(NC)nc12` (stereo not drawn) [Compound 22a, 3-(2,6-Bis-methylamino-8-propylamino-pyrimido[5,4-d]pyrimidin-4-ylamino)-1,1,1-trifluoro-propan-2-ol Hydrochloride]: the change in vivo at 0.3 mg/kg came out at 102%. Consider `CNc1nc(NCC(C)(C)O)c2nc(NC)nc(NCc3ncccn3)c2n1` [Compound 38a, 1-{2,6-Bis-methylamino-8-[(pyrimidin-2-ylmethyl)-amino]-pyrimido[5,4-d]pyrimidin-4-ylamino}-2-methyl-propan-2-ol Hydrochloride], for which the change in vivo at 0.3 mg/kg is 18% and the change in vivo at 3 mg/kg amounted to 27%. Taken in the same sequence, the figures for `CCNc1nc(NCC(C)(C)O)c2nc(NCC)nc(NCC)c2n1` [Compound 49a, 2-Methyl-1-(2,6,8-tris-ethylamino-pyrimido[5,4-d]-pyrimidin-4-ylamino)-propan-2-ol Hydrochloride] were 127% and 183%.
